In BindingDB's records for PubMed 38118394 (Second Military Medical University (Naval Medical …):
Peptide text beside a SMILES is read from it.

Target: Glypican-3 (Homo sapiens, UniProt P51654)
Assay: Binding affinity to GPC3 (unknown origin) assessed as dissociation constant by fluorescence polarization assay

Glypican-3, sequence (P51654 25-358 limits assumed): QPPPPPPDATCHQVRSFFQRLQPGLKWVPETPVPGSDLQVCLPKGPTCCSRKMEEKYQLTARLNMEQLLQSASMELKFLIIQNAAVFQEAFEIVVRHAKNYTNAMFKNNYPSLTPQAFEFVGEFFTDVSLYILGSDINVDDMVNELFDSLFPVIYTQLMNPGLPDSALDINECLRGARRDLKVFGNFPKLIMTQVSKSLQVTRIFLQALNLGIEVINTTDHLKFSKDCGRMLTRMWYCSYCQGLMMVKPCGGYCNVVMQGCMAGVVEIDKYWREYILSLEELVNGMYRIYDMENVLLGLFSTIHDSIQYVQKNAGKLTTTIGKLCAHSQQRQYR
Glypican-3, sequence (P51654 359-554 limits assumed): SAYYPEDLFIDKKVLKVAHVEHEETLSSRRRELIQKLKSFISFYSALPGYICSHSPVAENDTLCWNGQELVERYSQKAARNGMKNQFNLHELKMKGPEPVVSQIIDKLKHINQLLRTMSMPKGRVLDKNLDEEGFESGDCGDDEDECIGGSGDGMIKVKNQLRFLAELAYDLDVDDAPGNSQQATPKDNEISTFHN

SMILES	Kd [nM]
C=Cc1c(C)c2cc3nc(c(CC(=O)O)c4[nH]c(cc5nc(cc1[nH]2)C(C)=C5CC)c(C)c4C(=O)NCCCC(=O)N[C@@H](CC(=O)O)C(=O)N[C@@H](Cc1ccc(O)cc1)C(=O)N[C@@H](CCC(=O)O)C(=O)N[C@@H](CCSC)C(=O)N[C@@H](Cc1cnc[nH]1)C(=O)N[C@@H](CC(C)C)C(=O)N[C@@H](Cc1c[nH]c2ccccc12)C(=O)N[C@@H](Cc1c[nH]c2ccccc12)C(=O)NCC(=O)N[C@H](C(=O)N[C@@H](CCC(=O)O)C(=O)N[C@@H](CC(C)C)C(=O)O)[C@@H](C)O)[C@@H](CCC(=O)O)[C@@H]3C (HELM PEPTIDE1{[C=Cc1c(C)c2cc3nc(c(CC(=O)O)c4[nH]c(cc5nc(cc1[nH]2)C(C)=C5CC)c(C)c4C(=O)[*:2])[C@@H](CCC(=O)O)[C@@H]3C].[O=C(CCCN[*:1])[*:2]].D.Y.E.M.H.L.W.W.G.T.E.L}$$$$V2.0)	300
C=Cc1c(C)c2cc3nc(c(CC(=O)O)c4[nH]c(cc5nc(cc1[nH]2)C(C)=C5CC)c(C)c4C(=O)NCCCC(=O)N[C@@H](CCCCN)C(=O)N[C@@H](CCCCN)C(=O)N[C@@H](CCCCN)C(=O)N[C@@H](CCCNC(=N)N)C(=O)N[C@@H](CC(C)C)C(=O)N[C@@H](CC(N)=O)C(=O)N[C@H](C(=O)NCC(=O)NCC(=O)N[C@H](C(=O)N[C@@H](Cc1ccc(O)cc1)C(=O)N[C@@H](Cc1ccccc1)C(=O)N[C@@H](CC(C)C)C(=O)N[C@H](C(=O)N[C@H](C(=O)N[C@@H](CCCNC(=N)N)C(=O)N[C@@H](CCC(N)=O)C(=O)O)[C@@H](C)O)[C@@H](C)O)[C@@H](C)O)C(C)C)[C@@H](CCC(=O)O)[C@@H]3C (HELM PEPTIDE1{[C=Cc1c(C)c2cc3nc(c(CC(=O)O)c4[nH]c(cc5nc(cc1[nH]2)C(C)=C5CC)c(C)c4C(=O)[*:2])[C@@H](CCC(=O)O)[C@@H]3C].[O=C(CCCN[*:1])[*:2]].K.K.K.R.L.N.V.G.G.T.Y.F.L.T.T.R.Q}$$$$V2.0)	300
C=Cc1c(C)c2cc3nc(c(CC(=O)O)c4[nH]c(cc5nc(cc1[nH]2)C(C)=C5CC)c(C)c4C(=O)NCCCC(=O)N[C@@H](CCCNC(=N)N)C(=O)N[C@@H](CC(C)C)C(=O)N[C@@H](CC(N)=O)C(=O)N[C@H](C(=O)NCC(=O)NCC(=O)N[C@H](C(=O)N[C@@H](Cc1ccc(O)cc1)C(=O)N[C@@H](Cc1ccccc1)C(=O)N[C@@H](CC(C)C)C(=O)N[C@H](C(=O)N[C@H](C(=O)N[C@@H](CCCNC(=N)N)C(=O)N[C@@H](CCC(N)=O)C(=O)O)[C@@H](C)O)[C@@H](C)O)[C@@H](C)O)C(C)C)[C@@H](CCC(=O)O)[C@@H]3C (HELM PEPTIDE1{[C=Cc1c(C)c2cc3nc(c(CC(=O)O)c4[nH]c(cc5nc(cc1[nH]2)C(C)=C5CC)c(C)c4C(=O)[*:2])[C@@H](CCC(=O)O)[C@@H]3C].[O=C(CCCN[*:1])[*:2]].R.L.N.V.G.G.T.Y.F.L.T.T.R.Q}$$$$V2.0)	300
